Assay results as given in publication PMC5171807, “Five colour variants of bright luminescent protein for real-time multicolour bioimaging” (Nature Communications, 2016).

Molecular target: T1, green eNL (GeNL) (Oplophorus gracilirostris, UniProt Q9GV45, A31E/Q38R/Q45L/L54V/A60N/K70R/V71I/A81I/F95D/L99Q/M102K/I117V/P142E/Q151K/Y165I/N193R)
T1 construct: single-chain fusion: C-terminally truncated mNeonGreen - two-residue linker - NanoLuc (N-terminal deletion 4); N-terminal His tag; E. coli; with mNeonGreen
Assay: luminescence initial velocity (first […] s), Michaelis-Menten fit
Type: biochemical
Details: 10 pM enzyme; furimazine 0.025-13 μM

T1 sequence (Q9GV45 30-196 with the stated changes): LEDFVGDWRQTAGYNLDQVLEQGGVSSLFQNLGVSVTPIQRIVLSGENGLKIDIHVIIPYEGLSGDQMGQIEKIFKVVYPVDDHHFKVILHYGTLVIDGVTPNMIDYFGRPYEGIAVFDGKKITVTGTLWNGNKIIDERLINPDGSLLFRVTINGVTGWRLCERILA

In the case of O=c1c(Cc2ccco2)nc2c(Cc3ccccc3)[nH]c(-c3ccccc3)cn1-2 [furimazine], the Km is reported as “enzymatic parameters (Km and kcat) of the eNLs and Nluc”.
